Data reported in patent US20200323772A1, “TREATMENT OF INFLAMMATORY DISEASE USING INGESTIBLE DEVICE TO RELEASE IMMUNE MODULATOR” (Progenity, Inc., priority 2017, published 2020).

Tests used:
[1] = Pharmacokinetic study of oral vs intra-cecal tacrolimus: blood, GI tissue, luminal and rectal content concentrations (Example 13); parameters: species or system Yorkshire-Cross farm swine; settings: in vivo, 0.09 mg/kg
Description: (§1) No further randomization procedure was employed.

[2] = Tissue, plasma, rectal and GI content pharmacokinetics of tacrolimus, oral vs intra-cecal ingestible device (Example 10); parameters: species or system Yorkshire-Cross farm swine; settings: in vivo
Experimental: The primary objective of this study was to compare the tissue, plasma, rectal sample, and GI content pharmacokinetics of tacrolimus through oral versus intra-cecal ingestible device delivery in normal Yorkshire-Cross farm swine.
as §1
Animals in Group 1 received an ingestible device containing 0.8 mL of vehicle solution (80% alcohol, 20% HCO-60). Animals in Group 2 received orally […] liquid formulation of tacrolimus at 4 mg/0.8 mL per animal (Prograf: 5 mg/mL). Animals in Group 3 received intra-cecally an ingestible device containing tacrolimus at 1 mg in 0.8 mL per ingestible device. Animals in Group 4 received intra-cecally an ingestible device containing tacrolimus at 2 mg in 0.8 mL per ingestible device. Animals in Group 5 received intra-cecally an ingestible device containing tacrolimus at 4 mg in 0.8 mL per ingestible device. To control for potential confounding effects of the surgery, all groups fast on Day −11 at least 24 hr before being subjected to anesthesia followed by surgical placements of a cecal port by a veterinary surgeon at Day −10. All animals were fasted for at least 12 hr prior to dosing on Day 1. Animals were dosed via either intra-cecal dosing (IC) or oral dosing (PO) at Day 1 (between 6-8 p.m.). All animals resumed feeding at approximately 4 hours after dose ([…]. after dosing).
Animals in Group 1 (Vehicle Control) were administered a single intra-cecal ingestible device containing 0.8 mL Vehicle solution (80% alcohol, 20% castor oil (HCO-60) on Day 1. On Day −10 the animals were anesthetized, and a veterinary surgeon surgically placed an intra-cecal port in each animal. On Day 1, each animal was placed into a sling then a single intra-cecal ingestible device containing 0.8 mL vehicle solution (80% alcohol, 20% castor oil (HCO-60)) is introduced by the veterinary surgeon into the cecum via the cecal port in each animal. Following ingestible device placement, the animals were removed from the slings and placed back into their pens with water. All animals resumed feeding at approximately 4 hours after dose. […] A total of 60 samples were collected.
Approximately 200˜400 mg of rectal content were collected, if available, with a fecal swab (Copan Diagnostics Nylon Flocked Dry Swabs, 502CS01). The fecal swab was pre-weighed and weighed after collection in the collection tube (Sterile Tube and Cap No Media, PFPM913S), and the sample weight was recorded. The fecal swab was broken via the breakpoint, and was stored in the collection tube, and immediately frozen at −70° C. […] Immediately following euthanasia, tissue was collected.
For tissue necropsy, small intestine fluid and cecal fluid were collected separately from all the animals into two separate square plastic bottles, and stored at −20° C. The length and diameter of the cecum and the colon was measured from one animal in each group and recorded for reference. Tissues were collected for pharmacokinetic analyses and include mesenteric lymph nodes, a Peyer's Patch, and five gastrointestinal sections, including cecum, proximal colon, transverse colon, distal colon, and rectum. All samples were weighed, and the tissue sample weights were recorded. […] Around 3 grams of the total punched sample were collected into a pre-weighed 15-mL conical tube, and the tissue weight was recorded. […]

[3] = female, Yorkshire-Cross, pig, po
[4] = female, Yorkshire-Cross, pig, po, 12 h

C=CC[C@@H]1/C=C(\C)C[C@H](C)C[C@H](OC)[C@H]2O[C@@](O)(C(=O)C(=O)N3CCCC[C@H]3C(=O)O[C@H](/C(C)=C/[C@@H]3CC[C@@H](O)[C@H](OC)C3)[C@H](C)[C@@H](O)CC1=O)[C@H](C)C[C@@H]2OC [tacrolimus]
Kp at 12 h [1, 3]: 0 | Tissue (mean) (ng/g)/AUG(0-12 hr)(ng·hr/ml) Ratio [1, 4]: 0 | Tissue (mean) (ng/g)/Trough(12 hr)(ng/ml) Ratio [1, 4]: 0 | Trough (12 hr) [1, 4]: 0.568 ng/mL | concentration at 12 h ([1]; female, Yorkshire-Cross, pig, po, Trough (12 hr)): 0.568 ng/mL | AUC0-12 hours in the blood [1]: higher | mean concentration in the blood [1]: higher | systemic concentrations [2, 3]: equivalent to low dose IC group (0.02 mg/kg) | luminal content (spiral, transverse, and distal colon) concentrations [2]: Significantly higher | mean concentration in the cecum tissue and the proximate colon tissue [2]: higher | tissue (spiral and transverse colon) concentrations [2]: Significantly higher | level in tissue ([2]; po): No measurable level
